# Assay results from patent US20080234188A1, “Antimicrobial Peptides” (The Hospital for Sick Children, priority 2001, published 2008).
# Where a SMILES comes first, the peptide text is derived from it.
# Experiments:
# [1] = tested on: C498: E. coli, wild type strain; assay type: cell-based; conditions: for MIC C498: wild type strain; for MIC C498 (active/inactive): Table 2, class symbols
# Description: (§1) The bacterial strains used were E. coli C498, E. coli C500, Escherichia coli UB1005 and its antibiotic supersusceptible derivative DC2 (22); a clinical isolate of Staphylococcus epidermidis (C621); coryneform bacterial strain Corynebacterium xerosis (C875); and E. coli ATCC 25922, Staphylococcus aureus ATCC 25923, Enterococcus faecalis ATCC 29212, Bacillus subtilis ATCC 6633 and Pseudomonas aeruginosa ATCC 27853, all from American Type Culture Collection.
# (§2) Peptide antibacterial activity was assessed by the method of R. Hancock et al. (Wu & Hancock (1999), J. Biol. Chem., v. 274, pp. 29-35). Test strains of bacteria from Mueller Hinton agar (MHA) plates were inoculated into 5 ml Mueller Hinton Broth (MHB) in tubes and grown overnight at 37° C. on a shaker (180 rpm). Serial dilutions of test peptides (at 10 times the required test concentrations) were made in 0.01% acetic acid, 0.2% BSA, in polypropylene or coated glass tubes as follows: the test peptide was (a) dissolved in distilled water at 20 times the required maximum concentration (enough final volume for all tests to be performed on a given day); (b) diluted into an equal volume of 0.02% acetic acid, 0.4% BSA to give 10 times the required maximum concentration; (c) serial doubling dilutions were performed in 0.01% acetic acid, 0.2% BSA to provide serial dilutions of peptides at 10 times the required test concentrations, e.g., 640, 320, 160, . . . 2.5 μg/ml. (No deleterious effects of long-term storage of peptides in these media have been detected). Overnight bacterial cultures were diluted in MHB to give 2−7×10^5 colony forming units/ml. Bacterial suspension (100 μl) was dispensed in each well; controls without bacteria were maintained in parallel. To each well was added 11 μl of 10× test peptide and plates were incubated at 37° C. for 18-24 hours, and checked again at 40-48 hours. Plates were read visually and at 600 nm in a microplate reader (Molecular Devices).
# (§3) were synthesized. The antibacterial activity of these peptides was determined against both Gram-positive bacteria ([…], Corynebacterium xerosis) and Gram-negative bacteria (various strains of E. coli). The results are shown in Table 2, along with the average hydrophobicity of each peptide, calculated as described herein.
# [2] = tested on: C500: E. coli, antibiotic strain; assay type: cell-based; conditions: for MIC C500: antibiotic strain; for MIC C500 (active/inactive): Table 2, class symbols
# Description: as §1, §2, §3
# [3] = tested on: Corynebacterium xerosis (C875); assay type: cell-based; conditions: for MIC C875 (active/inactive): Table 2, class symbols
# Description: as §1, §2, §3
# (§4) A further number of the peptides of the invention were tested for antimicrobial activity against a range of Gram-positive and Gram-negative bacteria by the assay described immediately before Example 1.
# [4] = tested on: Staphylococcus epidermidis (C621); assay type: cell-based; conditions: for MIC C621 (active/inactive): Table 2, class symbols
# Description: as §1, §2, §3, §4
# E. coli DC2 = test: Assay of antibacterial activity (MIC), E. coli DC2; assay type: cell-based, Escherichia coli; conditions: Table 3; Gram-negative
# Description: as §1, §2, §4
# E. coli UB1005 = assay type: cell-based, Escherichia coli; conditions: UB1005
# Description: as §1, §2, §4
# [5] = Hydrophobicity (hydropathy) from reverse-phase HPLC retention scale; assay type: physicochemical; set-up: key to Average Hydrophobicity of Core Sequence / Mean Core segment Hydrophobicity: arithmetic average of Table 1 hydropathy values of constituent residues; key to Hydropathy: hydropathy scale from HPLC retention times of model peptides (Table 1); conditions: for Mean residue hydropathy of X-residue peptide / Hydropathy: Table 1; for Hydropathy: of the X-residue, from HPLC retention of KKAAAXAAAAAXAAWAAXAAAKKKK-amide peptides; for Average Hydrophobicity of Core Sequence: Table 2, calculated from Table 1 hydropathy values; for Mean Core segment Hydrophobicity: Table 3
# Description: The “hydrophobicity value” of an amino acid residue means the hydrophobicity value of that residue as shown in Table 1 or as calculated by the method described herein.
# The “hydrophobicity value” of an amino acid sequence or peptide means the arithmetic average of the individual hydrophobicity values of the constituent amino acid residues of the sequence.
# Various hydrophobicity scales for proteins and amino acids have been described in the literature but the inventors have established the hydrophobicity scale of Table 1 based on the retention times on HPLC of a series of hydrophobic model peptides, as described in Liu and Deber (1998), Biopolymers (Peptide Science), v. 47, pp. 41-62).
# The hydrophobicity value shown for each amino acid in Table 1 as “hydropathy” may be used as the hydrophobicity value for that amino acid in any peptide whose hydrophobicity value has to be calculated. The “average hydrophobicity” of a peptide containing amino acids shown in Table 1 is calculated by determining the arithmetic average of the Table 1 “hydropathy” values for the constituent amino acids of the sequence.
# Peptides in accordance with the invention may also include other amino acids. For an amino acid not included in Table 1, the hydrophobicity value may be determined by the same method as described herein for obtaining the values of Table 1. For example, a peptide such as KKAAAXAAAAAXAAXAAXAAAKKKK-amide (Sequence ID No: 1) may be synthesized, where X is the amino acid whose hydrophobicity value is to be determined, and the retention time of the peptide on HPLC is determined, as described in the Examples. Similar peptides where X is Lys or Phe are also prepared and their HPLC retention times determined. The retention time, Rx, is converted to the hydropathy value H for the selected amino acid using the equation
# H=(10×ΔtRx-Lys/ΔtRPhe-Lys)−5.00
# where ΔtRx-Lys=retention time difference in minutes between Rx and the retention time of the most hydrophilic peptide tested (X=Lys) and where ΔtRPhe-Lys=retention time difference in minutes between the most hydrophobic peptide tested (X=Phe) and the most hydrophilic (X=Lys).
# The retention time of each peptide was determined on a C4 reversed-phase column (4.6×250 mm, 300 A pore size, 10 μ particle size). Equal amounts of each peptide were injected into the column and eluted at a flow rate of 1 mL/min, utilizing a linear AB gradient (2% B/min), where buffer A was 0.1% TFA/ddH2O, and buffer B was 0.1% TFA/acetonitrile. The retention time of each peptide reported here was the average of triplicate measurements.
SMILES,MIC C498 [1] [µM],MIC C500 [2] [µM],MIC C875 [3] [µM],MIC C. xerosis C875 [3] [µM],MIC C621 [4] [µM],MIC S. epidermidis C621 [4] [µM],MIC E. coli DC2 (E. coli DC2) [µM],MIC E. coli UB1005 (E. coli UB1005) [µM],Mean residue hydropathy of X-residue peptide [5],Hydropathy [5],Average Hydrophobicity of Core Sequence [5],Mean Core segment Hydrophobicity [5],MIC C498 (active/inactive) [1],MIC C500 (active/inactive) [2],MIC C875 (active/inactive) [3],MIC C621 (active/inactive) [4]
CC(C)C[C@H](NC(=O)[C@H](C)NC(=O)[C@H](C)NC(=O)[C@H](C)NC(=O)[C@H](CCCCN)NC(=O)[C@@H](N)CCCCN)C(=O)N[C@@H](C)C(=O)N[C@@H](C)C(=O)N[C@@H](C)C(=O)N[C@@H](C)C(=O)N[C@@H](C)C(=O)N[C@@H](CC(C)C)C(=O)N[C@@H](C)C(=O)N[C@@H](C)C(=O)N[C@@H](Cc1c[nH]c2ccccc12)C(=O)N[C@@H](C)C(=O)N[C@@H](C)C(=O)N[C@@H](CC(C)C)C(=O)N[C@@H](C)C(=O)N[C@@H](C)C(=O)N[C@@H](C)C(=O)N[C@@H](CCCCN)C(=O)N[C@@H](CCCCN)C(=O)N[C@@H](CCCCN)C(=O)N[C@@H](CCCCN)C(N)=O [Peptide L25] (H-KKAAALAAAAALAAWAALAAAKKKK-NH2; N-terminus assumed),6,6,0.2,<0.25,1.5,2,16,32,1.14,4.76,1.14,1.14,–,–,–,–
C[C@H](NC(=O)[C@H](C)NC(=O)[C@H](C)NC(=O)[C@H](Cc1ccc(O)cc1)NC(=O)[C@H](C)NC(=O)[C@H](C)NC(=O)[C@H](C)NC(=O)[C@H](CCCCN)NC(=O)[C@@H](N)CCCCN)C(=O)N[C@@H](C)C(=O)N[C@@H](C)C(=O)N[C@@H](Cc1ccc(O)cc1)C(=O)N[C@@H](C)C(=O)N[C@@H](C)C(=O)N[C@@H](Cc1c[nH]c2ccccc12)C(=O)N[C@@H](C)C(=O)N[C@@H](C)C(=O)N[C@@H](Cc1ccc(O)cc1)C(=O)N[C@@H](C)C(=O)N[C@@H](C)C(=O)N[C@@H](C)C(=O)N[C@@H](CCCCN)C(=O)N[C@@H](CCCCN)C(=O)N[C@@H](CCCCN)C(=O)N[C@@H](CCCCN)C(N)=O [Peptide Y25] (H-KKAAAYAAAAAYAAWAAYAAAKKKK-NH2; N-terminus assumed),11,5,0.2,<0.25,3,8,16,32,0.71,2.00,0.71,0.71,–,–,–,–
CC(C)C[C@H](NC(=O)[C@H](C)NC(=O)[C@H](C)NC(=O)[C@H](C)NC(=O)[C@H](CCCCN)NC(=O)[C@@H](N)CCCCN)C(=O)N[C@@H](C)C(=O)N[C@@H](C)C(=O)N[C@@H](C)C(=O)N[C@@H](C)C(=O)N[C@@H](C)C(=O)N[C@@H](CS)C(=O)N[C@@H](C)C(=O)N[C@@H](C)C(=O)N[C@@H](Cc1c[nH]c2ccccc12)C(=O)N[C@@H](C)C(=O)N[C@@H](C)C(=O)N[C@@H](CC(C)C)C(=O)N[C@@H](C)C(=O)N[C@@H](C)C(=O)N[C@@H](C)C(=O)N[C@@H](CCCCN)C(=O)N[C@@H](CCCCN)C(=O)N[C@@H](CCCCN)C(=O)N[C@@H](CCCCN)C(N)=O [[C25]] (H-KKAAALAAAAACAAWAALAAAKKKK-NH2; N-terminus assumed),–,–,–,1,–,>32,8,16,0.78,2.49,1.02,1.02,+,+,+,+
CSCC[C@H](NC(=O)[C@H](C)NC(=O)[C@H](C)NC(=O)[C@H](C)NC(=O)[C@H](CCCCN)NC(=O)[C@@H](N)CCCCN)C(=O)N[C@@H](C)C(=O)N[C@@H](C)C(=O)N[C@@H](C)C(=O)N[C@@H](C)C(=O)N[C@@H](C)C(=O)N[C@@H](CCSC)C(=O)N[C@@H](C)C(=O)N[C@@H](C)C(=O)N[C@@H](Cc1c[nH]c2ccccc12)C(=O)N[C@@H](C)C(=O)N[C@@H](C)C(=O)N[C@@H](CCSC)C(=O)N[C@@H](C)C(=O)N[C@@H](C)C(=O)N[C@@H](C)C(=O)N[C@@H](CCCCN)C(=O)N[C@@H](CCCCN)C(=O)N[C@@H](CCCCN)C(=O)N[C@@H](CCCCN)C(N)=O [[M25]] (H-KKAAAMAAAAAMAAWAAMAAAKKKK-NH2; N-terminus assumed),–,–,–,0.5,–,16,32,>32,0.90,3.23,0.89,0.90,+,+,+,+
